Measured values as given in US20260216348A1, “IRAK DEGRADATION AGENT AND USE THEREOF” (Increland, priority 2023, published 2026).

Columns and labels:
Assay type in all cases: cell-based
[1] = tested on: R848-induced IL-6 secretion in human peripheral blood mononuclear cells (PBMCs); test: Inhibition of R848-induced IL-6 secretion in human PBMCs (IL-6 ELISA); settings: PBMC, R848 2.5 μg/mL, 20 h pre-incubation, 24 h stimulation
Method: This experiment was carried out in RPMI 1640 medium containing 10% FBS and 1% penicillin/streptomycin, with each of the compounds at an initial test concentration of 1 μM. The compound was dissolved in DMSO to prepare a stock solution, which was serially diluted into a series of working solutions with a 4-fold concentration gradient using the culture medium and then added to a 96-well plate at 10 μL per well. PBMCs (Batch No.: P122101102C; Milecell Biotechnology Inc.) were counted and diluted to a cell concentration of 1.25×10^6 cells/mL, and then added to the aforementioned compound-containing 96-well plate at 160 μL per well. The system was mixed well and incubated in a 5% CO2 incubator at 37° C. for 20 h. Then 10 μL of R848 (final concentration: 2.5 μg/mL) was added, and the culture was continued for 24 h in a 5% CO2 incubator at 37° C. After incubation, the 96-well plate was centrifuged at 2000 rpm for 4 min. The supernatant was collected and diluted 120-fold, then detected using an IL-6 ELISA kit. The OD450 values were read, and converted to IL-6 concentrations based on a standard curve.

[2] = tested on: LPS/IL-1β-induced IL-6 secretion in human peripheral blood mononuclear cells (PBMCs); test: Inhibition of LPS/IL-1β-induced IL-6 secretion in human PBMCs (IL-6 ELISA); settings: PBMC, LPS 10 ng/mL + IL-1β 20 ng/mL, 24 h pre-incubation, 20 h stimulation
Method: This experiment was carried out in RPMI 1640 medium containing 10% FBS and 1% penicillin/streptomycin, with each of the compounds at an initial test concentration of 1 μM.
The compound was dissolved in DMSO to prepare a stock solution, which was serially diluted into some working solutions with a 5-fold concentration gradient using the culture medium and then added to a 96-well plate at 10 μL per well. PBMCs (Batch No.: P122101102C; Milecell Biotechnology Inc.) were counted and diluted to a cell concentration of about 1.3×10^6 cells/mL, and then added to the aforementioned compound-containing 96-well plate at 150 μL per well. The system was mixed well and incubated in a 5% CO2 incubator at 37° C. for 24 h. Then 5 μL of LPS (final concentration: 10 ng/mL) and 5 μL of IL-1β (final concentration: 20 ng/mL) were added to each well, respectively, and the culture was continued for 20 h in a 5% CO2 incubator at 37° C. After incubation, the 96-well plate was centrifuged at 2000 rpm for 4 min. The supernatant was collected and diluted 200-fold, then detected using an IL-6 ELISA kit. The OD450 values were read, and converted to IL-6 concentrations based on a standard curve. The dose-response curves were fitted using GraphPad 8.0 to calculate the IC50 values.

IRAK4 = target: T1, IRAK4 (Homo sapiens, UniProt Q9NWZ3); test: IRAK4 protein degradation in THP1 cells (Western blot); settings: THP-1 cells, 24 h
T1 construct: Effect of the Compounds on IRAK4 Protein Degradation in THP1 Cells; endogenous in cells; host or cells: THP-1 cells
T1 sequence (Q9NWZ3 1-460): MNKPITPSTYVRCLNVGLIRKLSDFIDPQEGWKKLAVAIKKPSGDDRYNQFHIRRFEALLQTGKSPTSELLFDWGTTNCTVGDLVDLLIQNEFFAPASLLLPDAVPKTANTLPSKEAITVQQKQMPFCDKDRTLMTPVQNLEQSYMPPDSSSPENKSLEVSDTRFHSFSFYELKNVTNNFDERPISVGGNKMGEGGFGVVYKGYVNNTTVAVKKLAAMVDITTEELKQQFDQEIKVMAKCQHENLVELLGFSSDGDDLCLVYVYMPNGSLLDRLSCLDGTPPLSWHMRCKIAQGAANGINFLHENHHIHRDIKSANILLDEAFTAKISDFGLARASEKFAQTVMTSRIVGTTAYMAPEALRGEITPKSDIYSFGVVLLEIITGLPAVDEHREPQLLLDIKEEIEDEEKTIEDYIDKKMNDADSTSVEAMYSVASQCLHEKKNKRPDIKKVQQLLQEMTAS
Method: THP-1 cells were seeded into a 96-well cell culture plate, with 2×10^5 cells and 90 μL of culture medium per well. The cell culture plate was cultured in an incubator with 5% CO2 at 37° C. overnight. The compound was dissolved in DMSO to prepare a stock solution, which was serially diluted into a series of working solutions with a 5-fold concentration gradient using the culture medium and then added to the aforementioned 96-well plate at 10 μL per well. The cell culture plate was further incubated for 24 h in a 5% CO2 incubator at 37° C. After incubation, the 96-well plate was centrifuged and the supernatant was discarded, followed by adding 40 μL of cell lysis buffer containing […]/phosphatase inhibitors to each well for sufficient lysis on an ice bath. Protein quantification was performed using the BCA protein quantification kit, followed by the preparation of Western blot samples. […] After electrophoresis, protein transfer was performed using a PVDF membrane under ice bath conditions for 1 h. After the transfer was completed, the PVDF membrane was blocked with gentle shaking in 5% skim milk at room temperature for 1 h. After blocking, the PVDF membrane was incubated with the primary antibody overnight with gentle shaking at 4° C. The PVDF membrane was washed 3 times with TBST, then the secondary antibody was added and incubated for 1 h with gentle shaking at room temperature, followed by washing of the PVDF membrane with TBST for 3 times. After the washes were completed, the chemiluminescent substrate was added; the PVDF membrane was scanned using a Clinx imager, semi-quantitative analysis was performed with ImageJ software, and the DC50 was calculated using GraphPad Prism 8.0.

DC50 (IRAK4) [nM] | Structure (SMILES) | IC50 [1] [nM] | IC50 [2] [nM]
 | CN(C)c1cc2nn([C@H]3CC[C@H](CN4C[C@@H](F)[C@@H](n5cc6cc(N7CCC(=O)NC7=O)c(F)cc6n5)C4)CC3)cc2cc1NC(=O)c1cnn2cccnc12 [TM-239] | 10.4 | 7.31
 | CN(C)c1cc2nn([C@H]3CC[C@H](CN4CCC(c5nc6cc(C7CCC(=O)NC7=O)cc(F)c6o5)CC4)CC3)cc2cc1NC(=O)c1cnn2cccnc12 (stereo partly drawn) [TM-238] | 4.18 | 
 | CN(C)c1cc2nc([C@H]3CC[C@H](CN4CCC(n5cc6c(F)cc(N7CCC(=O)NC7=O)cc6n5)CC4)CC3)cn2nc1NC(=O)c1cnn2cccnc12 [TM-228] | 14.7 | 
 | CN(C)c1cc2nn([C@H]3CC[C@H](CN4C[C@H](F)[C@@H](n5cc6cc(C7CCC(=O)NC7=O)ccc6n5)C4)CC3)cc2cc1NC(=O)c1cnn2cccnc12 (stereo partly drawn) [TM-243] | 7.67 | 3.96
 | CN(C)c1cc2nn([C@H]3CC[C@H](CN4C[C@H](F)[C@@H](n5cc6c(F)cc(N7CCC(=O)NC7=O)cc6n5)C4)CC3)cc2cc1NC(=O)c1cnn2cccnc12 [TM-220] | 8.1 | 
 | CN(C)c1cc2nn(C3CCC(CN4C[C@@H](F)[C@@H](n5cc6cc(N7CCC(=O)NC7=O)ccc6n5)C4)CC3)cc2cc1NC(=O)c1cnn2cccnc12 (stereo partly drawn) [TM-206] | 5.49 | 
 | CN(C)c1cc2nn([C@H]3CC[C@H](CN4C[C@@H](n5cc6cc(C7CCC(=O)NC7=O)ccc6n5)[C@@H](F)C4)CC3)cc2cc1NC(=O)c1cnn2cccnc12 (stereo partly drawn) [TM-234] | 14.4 | 8.16
 | CN(C)c1cc2nn([C@H]3CC[C@H](CN4CC[C@H](c5nc6cc(N7CCC(=O)NC7=O)ccc6o5)C4)CC3)cc2cc1NC(=O)c1cnn2cccnc12 [TM-227] | 13.8 | 
 | CN(C)c1cc2nn([C@H]3CC[C@H](CN4C[C@@H](n5cc6c(F)cc(N7CCC(=O)NC7=O)cc6n5)[C@@H](F)C4)CC3)cc2cc1NC(=O)c1cnn2cccnc12 [TM-218] | 15.6 | 
 | CN(C)c1cc2nn([C@H]3CC[C@H](CN4C[C@H](F)[C@@H](n5cc6cc(F)c(N7CCC(=O)NC7=O)cc6n5)C4)CC3)cc2cc1NC(=O)c1cnn2cccnc12 [TM-223] | 10.8 | 
 | CN(C)c1cc2nn([C@@H]3CC[C@@H](CN4CC[C@H](n5cc6c(F)cc(N7CCC(=O)NC7=O)cc6n5)C4)OC3)cc2cc1NC(=O)c1cnn2cccnc12 [TM-224] | 15.5 | 
 | CN(C)c1cc2nn([C@H]3CC[C@H](CN4CC[C@H](n5cc6c(F)cc(N7CCC(=O)NC7=O)cc6n5)C4)CC3)cc2cc1NC(=O)c1cnn2cccnc12 [TM-216] | 13.4 | 
 | CN(C)c1cc2nn([C@H]3CC[C@H](CN4CC[C@@H](c5nc6cc(N7CCC(=O)NC7=O)ccc6o5)C4)CC3)cc2cc1NC(=O)c1cnn2cccnc12 [TM-226] | 4.28 | 
 | O=C1CCC(c2ccc3cn([C@@H]4CCN(C[C@H]5CC[C@H](n6cc7cc(NC(=O)c8cnn9cccnc89)c(F)cc7n6)CC5)C4)nc3c2)C(=O)N1 (stereo partly drawn) [TM-222] | 14 | 
 | CN(C)c1nc2nc([C@H]3CC[C@H](CN4C[C@@H](n5cc6cc(N7CCC(=O)NC7=O)ccc6n5)[C@@H](F)C4)CC3)cn2cc1NC(=O)c1cnn2cccnc12 [TM-236] | 22.4 | 
 | CN(C)c1cc2nn([C@H]3CC[C@H](CN4CC[C@@H](n5cc6c(F)cc(C7CCC(=O)NC7=O)cc6n5)C4)CC3)cc2cc1NC(=O)c1cnn2cccnc12 (stereo partly drawn) [TM-235] | 6.08 | 
 | CN(C)c1cc2nn([C@H]3CC[C@H](CN4C[C@@H](F)[C@@H](n5cc6c(F)cc(N7CCC(=O)NC7=O)cc6n5)C4)CC3)cc2cc1NC(=O)c1cnn2cccnc12 [TM-219] | 14.8 | 
 | CN(C)c1cc2nn([C@@H]3CC[C@@H](CN4CC[C@@H](n5cc6c(F)cc(N7CCC(=O)NC7=O)cc6n5)C4)OC3)cc2cc1NC(=O)c1cnn2cccnc12 [TM-225] | 12.3 | 
 | CN(C)c1cc2nn([C@H]3CC[C@H](CN4C[C@@H](n5cc6cc(N7CCC(=O)NC7=O)c(F)cc6n5)[C@@H](F)C4)CC3)cc2cc1NC(=O)c1cnn2cccnc12 [TM-232] | 18.9 | 
 | CN(C)c1cc2nc([C@H]3CC[C@H](CN4C[C@@H](n5cc6cc(N7CCC(=O)NC7=O)ccc6n5)[C@@H](F)C4)CC3)cn2nc1NC(=O)c1cnn2cccnc12 [TM-229] | 19.5 | 
1.66 | CN(C)c1cc2nn([C@H]3CC[C@H](CN4CC[C@H](n5cc6ccc(C7CCC(=O)NC7=O)cc6n5)[C@@H](F)C4)CC3)cc2cc1NC(=O)c1cnn2cccnc12 (stereo partly drawn) [TM-151] |  | 7.13
2.86 | CO[C@H]1CN(C[C@H]2CC[C@H](n3cc4cc(NC(=O)c5cnn6cccnc56)c(N(C)C)cc4n3)CC2)CC[C@H]1n1cc2ccc(N3CCC(=O)NC3=O)cc2n1 [TM-33] |  | 0.87
4 | CN(C)c1cc2nn([C@H]3CC[C@H](CN4CCC(n5cc6cc(F)c(N7CCC(=O)NC7=O)cc6n5)CC4)CC3)cc2cc1NC(=O)c1cnn2cccnc12 [TM-10] |  | 1.34
5.41 | CN(C)c1cc2nn([C@H]3CC[C@H](CN4CCC(n5cc6cc(N7CCC(=O)NC7=O)c(F)cc6n5)CC4)CC3)cc2cc1NC(=O)c1cnn2cccnc12 [TM-9] |  | 2.03
0.77 | C[C@@H]1CN(C[C@H]2CC[C@H](n3cc4cc(NC(=O)c5cnn6cccnc56)c(N(C)C)cc4n3)CC2)CC[C@H]1n1cc2ccc(C3CCC(=O)NC3=O)cc2n1 (stereo partly drawn) [TM-142] |  | 0.88
1.33 | CN(C)c1cc2nn([C@H]3CC[C@H](CN4CC[C@@H](n5cc6ccc(N7CCC(=O)NC7=O)cc6n5)[C@H](F)C4)CC3)cc2cc1NC(=O)c1cnn2cccnc12 [TM-30] |  | 1.05
 | CN(C)c1cc2nn([C@H]3CC[C@H](CN4CC[C@@H](n5cc6c(F)cc(N7CCC(=O)NC7=O)cc6n5)C4)CC3)cc2cc1NC(=O)c1cnn2cccnc12 [TM-217] | 8.59 | 
4.06 | CN(C)c1cc2nn([C@H]3CC[C@H](CN4CC[C@H](n5cc6ccc(N7CCC(=O)NC7=O)cc6n5)[C@@H](F)C4)CC3)cc2cc1NC(=O)c1cnn2cccnc12 [TM-31] |  | 3.29
0.93 | CN(C)c1cc2nn([C@H]3CC[C@H](CN4CC[C@@H](n5cc6cc(N7CCC(=O)NC7=O)c(F)cc6n5)[C@@H](F)C4)CC3)cc2cc1NC(=O)c1cnn2cccnc12 [TM-42] |  | 1.65
3.82 | CN(C)c1cc2nn([C@H]3CC[C@H](CN4CCN(c5nc6cc(C7CCC(=O)NC7=O)ccc6o5)CC4)CC3)cc2cc1NC(=O)c1cnn2cccnc12 (stereo partly drawn) [TM-106] |  | 2.52
